Test results as given in paper PMC11891579, “Fluorescent PyrAte-(S)-citalopram conjugates enable imaging of the serotonin transporter in living tissue” (Chemical Science, 2025).
“Also recorded” adds a separate entry of the source.

Columns and labels:
YhSERT = biological target: T1, YhSERT (Homo sapiens, UniProt P31645); experiment: radioligand uptake inhibition assay ([3H]5HT); assay type: cell-based; conditions: for IC50: HEK293 stably expressing YhSERT, 100 nM [3H]5HT, mean and SD, N = 3-6, read-out: IC50, uptake inhibition at SERT (YhSERT); for selectivity to SERT vs. DAT / selectivity to SERT vs. NET / selectivity to SERT vs. OCT3: from uptake inhibition IC50; for decrease of SERT affinity (IC50) compared to (S)-citalopram: uptake inhibition IC50; for Hill coefficient nH at SERT: uptake inhibition curve
T1 construct: expressed in transfected cells
Protocol: (§1) 1. Biological characterization
(§2) 1.1. Experimental methods
(§3) Buffer and solution compositions (in mM) are as follows:
(§4) Krebs-HEPES buffer (KHB): 120 NaCl, 3 KCl, 2 CaCl2, 2 MgCl2, 20 glucose, 10 HEPES NaOH, pH = 7.3 – 7.4. […]
(§5) 10 mM glucose, 1.25 mM NaH2PO4, pH = 7.4 (oxygenated with 95% O2, 5% CO2).
(§6) Human embryonic kidney 293 cells (HEK293) stably expressing the mCherry-tagged, YFP-tagged, and GFP-tagged human isoforms of SERT (mCherry-SERT, YhSERT, GhSERT), DAT (YhDAT), NET (hNET), and OCT3 (YhOCT3) were cultured in Dulbecco's modified Eagle's medium (DMEM) with high glucose (4.5 g/L) and l-glutamine (584 mg/L), supplemented with 10% fetal calf serum (FCS), 100 units/mL penicillin and 100 µg/mL streptomycin. The cells were cultured in a humidified atmosphere (37 °C, 5% CO2). Geneticin (50 µg/mL), Blasticidin (6 µg/mL), and Zeocin® (150 µg/mL) were added to maintain the selection pressure for the stable cell lines. Cells were typically seeded 24 hours prior to the experiments.
(§7) For uptake inhibition experiments, cells were seeded at 3.6 x 10^4 cells/0.2 mL into 96-well plates coated […]
(§8) with poly-d-lysine (PDL). […]
(§9) For uptake inhibition experiments, the cell medium was aspirated and the cells were washed once with 0.2 mL/well KHB at room temperature. The cells were pre-incubated with increasing concentrations of the substance of interest, diluted in KHB (0.05 mL/well). The pre-incubation solution was replaced with 0.05 mL/well KHB solution still containing the substance of interest and additionally the tritiated substrate (100 nM [3H]DA for YhDAT; 100 nM [3H]5HT for YhSERT; 20 nM and 50 nM [3H]MPP+ for hNET and YhOCT3), after 6 minutes (YhSERT), 5 minutes (YhDAT, hNET), or 10 minutes (YhOCT3). Substrate uptake was stopped after one minute (for [3H]DA and [3H]5HT), three minutes, or […]
(§10) ten minutes (for [3H]MPP+), by exchange of the substrate-containing buffer with 0.2 mL ice-cold KHB.
(§11) The KHB was aspirated immediately. Cells were lysed and prepared for [3H] content analysis by adding 0.2 mL Ultima Gold™ XR liquid scintillation cocktail. Measurements were performed in a 1450 MicroBeta microplate liquid scintillation counter. Non-specific uptake was determined in the presence of 30 µM paroxetine (for YhSERT), 50 µM GBR12909 (for YhDAT and hNET), or 100 µM decynium-22 (for YhOCT3). […]

hNET = biological target: T2, hNET (Homo sapiens, UniProt P23975); experiment: radioligand uptake inhibition assay ([3H]MPP+); assay type: cell-based; conditions: for IC50: HEK293 stably expressing hNET, 20 nM [3H]MPP+, mean and SD, N = 3-6, read-out: IC50, uptake inhibition at NET (hNET); for Hill coefficient nH at NET: uptake inhibition curve
T2 construct: expressed in transfected cells
Protocol: as §1, §2, §3, §4, §5, §6, §7, §8, §9, §10, §11

[1] = biological target: T3, endogenously expressed SERT (Mus musculus, UniProt Q60857); experiment: two-photon microscopy of acute mouse brain slices; conditions: for staining of acute mouse brain slices (DS, SNr, DR): 500 nM, 30 min, reduced by escitalopram or paroxetine
T3 construct: label endogenously expressed SERT; from tissue; host or cells: acute coronal brain slices of C57/BL-6 and Pet1-eYFP mice (dorsal striatum, substantia nigra reticulata, dorsal raphe)
Source text: All animal protocols were approved by the Institutional Animal Care and Use Committee (IACUC) of Columbia University, following guidelines established in the NIH Guide for the Care and Use of Laboratory Animals. All animals were caged in groups of 5 or less in a 12-hr light/dark cycle with access to food and water ad libitum.
Acute mouse brain slices preparation
Wild-type C57/BL-6 (The Jackson Laboratory, Bar Harbor, ME) and Pet1-eYFP mice were sacrificed by cervical dislocation at ages > 12 weeks. Pet1-eYFP mice (Cg-Tg(Fev-cre)1Esd/J (ePet-cre; The Jackson Laboratory) crossed with Ai32(RCLChR2(H134R)/EYFP (Ai32; The Jackson Laboratory) maintained on a 129SvEv/Tac background) were kindly provided by Dr. Mark S. Ansorge (Columbia University Irving Medical Center; Department of Psychiatry, New York, NY 10032). Mice were decapitated, and the brain was removed and placed in an ice-cold sucrose cutting solution. Coronal brain slices with 300 µm thickness were prepared using a Leica VT1200 vibratome at 0 – 4 °C. Slices containing the striatum, substantia nigra, and the raphe were transferred to oxygenated ACSF solution and allowed to equilibrate at room temperature.
Slices were incubated with PyrAte-(S)-citalopram conjugates (500 nM in ACSF) for 30 minutes at room temperature. For inhibition experiments, escitalopram (2 µM) and paroxetine (30 µM) were incubated for 15 minutes prior to addition of the test compound. Each slice was then transferred to an imaging chamber and held in place by a stainless-steel slice anchor (Warner Instruments). ACSF solutions containing the test compounds were continuously perfused throughout the imaging experiments. Structures at depths between 20 to 30 µm from the top of the slice were visualized with fluorescent signals using a Prairie Ultima multi-photon microscopy sytem: PyrAte was imaged using 810 nm excitation wavelength and 525/50 nm emission filter, eYFP was imaged using 965 nm excitation wavelength and 525/50 nm emission filter. Images were captured using Prairie View software and processed with ImageJ. Further co-localization analysis was performed using the JACoP plug-in.1 Statistical and data analysis
Data treatment and statistical analysis were performed using Microsoft Excel 2016 and GraphPad Prism v10.0. Data and statistical tests as shown in Figure 2 include individual points, mean, SEM, and P = 0.0023 as determined using two-tailed, paired t-test (t = 5.690, df = 5). Data and statistical tests as shown in Figure 5 include individual values, mean, SEM, and P values as determined using two-tailed unpaired t-test with Welch’s corrections (Fig. 5A: P = 0.0166, t = 4.665, df = 3.157; Fig. 5B: P =

[2] = photophysical properties in aqueous media; assay type: physicochemical; conditions: PBS:DMSO 99:1 v/v; for Quantum yield: C153 as internal standard
Source text: Table S5. Photophysical properties of PyrAte-(S)-citalopram conjugates in aqueous media (PBS:DMSO
99:1 v/v). C153 (coumarin 153) was used as internal standard for the measurement of quantum yield.
Compound λmax (nm) λEm (nm) Stokes shift ε at λmax Quantum Brightness (at λmax,
(nm) (M-1 cm-1) yield 103 M-1 cm-1)

T2 sequence (P23975 whole entry): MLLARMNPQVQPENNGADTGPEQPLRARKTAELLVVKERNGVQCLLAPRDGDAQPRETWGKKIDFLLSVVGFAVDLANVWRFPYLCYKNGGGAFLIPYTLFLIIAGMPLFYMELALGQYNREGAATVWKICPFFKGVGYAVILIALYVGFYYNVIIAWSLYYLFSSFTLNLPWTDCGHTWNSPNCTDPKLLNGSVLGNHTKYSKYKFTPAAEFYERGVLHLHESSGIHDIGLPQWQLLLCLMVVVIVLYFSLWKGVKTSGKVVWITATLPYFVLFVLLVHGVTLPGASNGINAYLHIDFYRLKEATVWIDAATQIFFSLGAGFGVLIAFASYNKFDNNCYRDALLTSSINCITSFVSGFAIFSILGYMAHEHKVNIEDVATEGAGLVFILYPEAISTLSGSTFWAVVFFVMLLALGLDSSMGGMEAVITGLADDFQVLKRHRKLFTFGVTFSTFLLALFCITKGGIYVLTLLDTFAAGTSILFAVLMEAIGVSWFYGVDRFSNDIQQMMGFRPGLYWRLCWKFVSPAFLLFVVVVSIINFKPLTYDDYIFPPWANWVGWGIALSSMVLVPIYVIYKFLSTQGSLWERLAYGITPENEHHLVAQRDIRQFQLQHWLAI
T1 sequence (P31645 whole entry): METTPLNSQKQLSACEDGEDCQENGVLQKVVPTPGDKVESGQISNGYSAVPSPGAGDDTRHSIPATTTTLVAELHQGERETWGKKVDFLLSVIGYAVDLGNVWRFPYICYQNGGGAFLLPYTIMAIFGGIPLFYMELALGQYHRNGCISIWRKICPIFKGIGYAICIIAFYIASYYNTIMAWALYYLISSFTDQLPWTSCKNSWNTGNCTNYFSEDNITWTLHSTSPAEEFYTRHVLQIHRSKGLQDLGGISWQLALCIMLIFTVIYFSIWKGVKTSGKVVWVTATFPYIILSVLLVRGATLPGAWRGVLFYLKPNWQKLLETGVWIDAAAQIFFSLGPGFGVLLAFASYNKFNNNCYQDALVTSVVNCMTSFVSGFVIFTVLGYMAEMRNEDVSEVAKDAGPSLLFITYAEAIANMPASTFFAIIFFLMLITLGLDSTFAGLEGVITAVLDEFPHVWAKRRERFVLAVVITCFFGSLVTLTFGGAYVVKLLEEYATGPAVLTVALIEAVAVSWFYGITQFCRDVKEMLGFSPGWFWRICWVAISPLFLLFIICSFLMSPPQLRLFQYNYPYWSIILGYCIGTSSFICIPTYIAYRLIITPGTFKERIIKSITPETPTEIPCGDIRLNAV
T3 sequence (Q60857 whole entry): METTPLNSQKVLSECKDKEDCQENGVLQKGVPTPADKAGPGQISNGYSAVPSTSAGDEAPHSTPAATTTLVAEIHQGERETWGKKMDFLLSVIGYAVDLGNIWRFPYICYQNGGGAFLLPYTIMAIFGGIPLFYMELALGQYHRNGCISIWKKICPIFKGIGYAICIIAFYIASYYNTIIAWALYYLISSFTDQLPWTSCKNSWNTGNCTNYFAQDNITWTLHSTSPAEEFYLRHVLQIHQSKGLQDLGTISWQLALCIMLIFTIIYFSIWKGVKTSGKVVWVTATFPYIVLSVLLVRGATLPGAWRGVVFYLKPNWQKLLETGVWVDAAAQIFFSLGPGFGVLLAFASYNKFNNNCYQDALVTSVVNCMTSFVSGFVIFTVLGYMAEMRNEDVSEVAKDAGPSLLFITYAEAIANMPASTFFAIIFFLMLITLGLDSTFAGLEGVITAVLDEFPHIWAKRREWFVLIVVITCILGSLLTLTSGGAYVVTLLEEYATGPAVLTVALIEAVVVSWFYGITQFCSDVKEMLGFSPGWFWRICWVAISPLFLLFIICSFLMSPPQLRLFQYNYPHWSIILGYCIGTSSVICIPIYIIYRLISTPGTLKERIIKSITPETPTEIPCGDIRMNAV

IC50 (YhSERT)	selectivity to SERT vs. DAT (YhSERT)	selectivity to SERT vs. NET (YhSERT)	selectivity to SERT vs. OCT3 (YhSERT)	decrease of SERT affinity (IC50) compared to (S)-citalopram (YhSERT)	Hill coefficient nH at SERT (YhSERT)	IC50 (hNET)	Hill coefficient nH at NET (hNET)	Pearson's correlation coefficient r, co-localization with eYFP-expressing serotonergic projections ([1]; DS, Pet1-eYFP mice)	Pearson's correlation coefficient r, co-localization with eYFP-expressing serotonergic projections ([1]; DS, in the presence of paroxetine)	Pearson's correlation coefficient r, co-localization with eYFP-expressing serotonergic projections ([1]; SNr, Pet1-eYFP mice)	Pearson's correlation coefficient r, co-localization with eYFP-expressing serotonergic projections ([1]; SNr, in the presence of paroxetine)	Brightness (at λmax) [2]	Stokes shift [2]	ε at λmax [2]	λEm [2]	λmax [2]	Quantum yield [2]	SMILES	staining of acute mouse brain slices (DS, SNr, DR) [1]
0.4 µM	around 10 fold	27 fold	8.2 fold	10 fold	−3.0	10.9 µM	−1.0	0.70	0.43	0.72	0.58	24.0 103 M-1 cm-1	88 nm	30000 M⁻¹ cm⁻¹	493 nm	405 nm	0.82	CCN(CC)c1ccc(-c2cc[n+]3c(-c4ccccc4)c(N4CCCC4)n(CCCC(=O)NCc4ccc5c(c4)CO[C@@]5(CCCN(C)C)c4ccc(F)cc4)c3c2)cc1 [PYR-C3-CIT, PyrAte-C3-(S)-citalopram]	localization of the compound in serotonergic regions in the DS and SNr
0.83 µM	2.5 fold	15 fold	2.5 fold	around 20 fold	−3.1	12.6 µM	−1.3					27.0 103 M-1 cm-1	87 nm	39600 M⁻¹ cm⁻¹	493 nm	406 nm	0.69	CCN(CC)c1ccc(-c2cc[n+]3c(-c4ccccc4)c(N4CCCC4)n(CCCCCCC(=O)NCc4ccc5c(c4)CO[C@@]5(CCCN(C)C)c4ccc(F)cc4)c3c2)cc1 [PYR-C6-CIT, PyrAte-C6-(S)-citalopram]	effectively stains all three areas examined; also recorded: SERT-specific staining in acute mouse brain slices
